# Assay results as given in article PMC7677715 (Redox Biology, 2020).
# Experiments:
# [1] = target: T1, α-tocopherol transfer protein (α-TTP) (Homo sapiens, UniProt P49638); experiment: FRET ligand transfer to/from liposomes; format: binding
# T1 sequence (P49638 1-278): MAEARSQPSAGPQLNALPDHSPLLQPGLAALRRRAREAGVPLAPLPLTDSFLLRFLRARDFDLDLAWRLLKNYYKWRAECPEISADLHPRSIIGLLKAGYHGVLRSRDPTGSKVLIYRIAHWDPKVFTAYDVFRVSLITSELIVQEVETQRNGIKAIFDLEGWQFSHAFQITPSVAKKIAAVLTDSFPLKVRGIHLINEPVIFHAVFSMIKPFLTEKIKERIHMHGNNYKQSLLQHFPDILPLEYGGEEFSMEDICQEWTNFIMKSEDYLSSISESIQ
# [2] = target: T2, γ-TTP (α-tocopherol transfer protein A156L) (Homo sapiens, UniProt P49638, A156L); experiment: X-ray crystal structure; format: binding
# T2 sequence (P49638 48-278 A156L): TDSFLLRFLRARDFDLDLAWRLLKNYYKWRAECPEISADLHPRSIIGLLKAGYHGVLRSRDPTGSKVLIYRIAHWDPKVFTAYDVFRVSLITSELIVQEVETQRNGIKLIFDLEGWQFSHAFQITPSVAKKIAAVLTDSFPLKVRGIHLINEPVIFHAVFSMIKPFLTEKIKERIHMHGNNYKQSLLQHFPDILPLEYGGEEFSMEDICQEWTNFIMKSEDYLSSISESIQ
Kp [1],Kd [2],SMILES
4.05,–,Cc1c(O)cc2c(c1C)O[C@](C)(CCC[C@H](C)CCC[C@H](C)CCCC(C)C)CC2 [γ-tocopherol]
–,53.8 nM,Cc1c(O)cc2c(c1C)O[C@](C)(CCC[C@H](C)CCC[C@H](C)CCCC(C)C)CC2 [RRR-γ-tocopherol]
